pEC50: −log10 of the molar value.
Key:
Format in all cases: cell-based
[1] = test system: CHOP; assay: Quantitative RT-PCR of ER stress-related genes, CHOP; conditions: pretreatment 10 h, tunicamycin 1.0 μg/mL 24 h
Procedure: (§1) First, total RNA was isolated using ISOGEN (tradename of Nippon Gene Co., Ltd.). cDNA was prepared using a Prime Script (trade name) first-strand cDNA synthesis kit (TaKaRa). qRT-PCR was performed with Fast SYBR Green Master Mix (Thermo Fisher) on a QuantStudio 3 real-time PCR system (Thermo Fisher). The copy number of each transcript is expressed relative to β-actin. The sequences of the primers (forward and reverse) are as follows: […]
(§2) The ability to alleviate endoplasmic reticulum (ER) stress of compound 1 was examined in HEK293 cells. FIGS. 1 and 2 show the biological activity of compound 1 for decreasing cytotoxicity under ER stress. […] Error bars represent s.d. (n=3). Statistical analysis was performed according to one-way ANOVA and a Dunnett's test using R software. […] To further study the effect of compound 1 on ER stress, mRNA levels of typical UPR genes, such as ATF4, s-XPB1, CHOP, BiP, and ERDJ4, were examined. In addition to compound 1, compound 6 was also tested in the same experiment. […] The quantitative RT-PCR was performed according to the method described above. HEK293 cells were treated with compound 1 (100 μM) for 10 hours and then incubated with tunicamycin (1.0 μg/mL) for 24 hours. Isolated RNA samples were subjected to reverse transcription and quantitative RT-PCR. […]

[2] = test system: HEK293 cells; assay: Tunicamycin assay (cell viability under ER stress, WST-8); parameters: key to Efficacy 5 μM (ER stress inhibition activity) / Efficacy 25 μM (ER stress inhibition activity) / Efficacy 100 μM (ER stress inhibition activity): “−” indicates no activity; “+” indicates weak activity; “++” indicates strong activity; conditions: for pEC50: Homo sapiens, HEK293, read-out: EC50 (dose-response curve, Hill equation); for pEC50 / Concentration at which activity was shown: tunicamycin 5.0 μg/mL 48 h
Procedure: HEK293 cells were seeded in 96-well plates ([…]) and incubated at 37° C. for 2 hours. The medium was then replaced with 100 μL of DMEM ([…]) containing self-assembling chemicals (20 or more compounds, including compounds of the present disclosure) and 1% DMSO. After incubation with any one of compounds 1 to 6 at a given concentration for 12 to 18 hours, HEK293 cells were treated with tunicamycin (5 μg/mL) or thapsigargin (10 μM) for 48 hours, and cell viability was measured using a WST-8 cell counting kit (Dojindo Laboratories).
Produced compounds XD8 to XD28 were subjected to a tunicamycin assay in the same manner as in Examples 1 to 9. Specifically, HEK293 cells were first seeded in a 96-well plate (1×10^4 cells/well) and incubated at 37° C. for 2 hours. The medium was then replaced with 100 μL of DMEM (10% FBS) containing a self-assembling chemical (each of compounds XD8 to XD28) and […]. After incubation with any of compounds XD8 to XD28 at a concentration of 5.0 μM, 25 μM, or 100 μM for 12 to 18 hours, HEK293 cells were treated with tunicamycin (5 μg/mL) for 48 hours, followed by measuring cell viability by using a WST-8 cell counting kit (Dojindo Laboratories).

[3] = test system: BiP; assay: Quantitative RT-PCR of ER stress-related genes, BiP; conditions: pretreatment 10 h, tunicamycin 1.0 μg/mL 24 h
Procedure: as §1, §2

[4] = test system: HEK293 cells; assay: Cell viability assay without ER stress inducer (cytotoxicity, WST-8); conditions: 64 h
Procedure: HEK293 cells were treated with compound 1, compound 4, compound 5, or compound 6 (25 μM or 100 μM, respectively) for 64 hours. The vertical axis represents relative cell viability (unit: %), and the horizontal axis represents concentration (unit: μM). Cell viability was measured using a WST-8 cell counting kit. Error bars represent s.d. (n=3).
(§3) FIG. 31 is a graph showing the results of a cell viability assay using bafilomycin A1. HEK293 cells were treated with bafilomycin A1 in DMEM (10% FBS) for 48 hours. The vertical axis represents relative cell viability (unit: %), and the horizontal axis represents the concentration of bafilomycin A1 (unit: μM). Cell viability was measured using a WST-8 cell counting kit. Error bars represent s.d. (n=3).
as §3, with “32” for “31”, “MG132.” for “bafilomycin A1.”, “MG132” for “bafilomycin A1”, “t),” for “%),”
The term “Efficacy” denotes ER (endoplasmic reticulum) stress inhibition activity. The term “Toxicity” denotes cytotoxicity. In the ER stress inhibition activity (Efficacy), “−” indicates no activity, “+” indicates weak activity, and “++” indicates strong activity. In addition, “XD7” in Table 1 below represents compound 6. That is, XD7 and compound 6 are the same compound.

[5] = test system: luciferase; assay: Luciferase-based refolding assay in live cells; conditions: compound 1 100 μM, compound 6 25 μM, 20 h
Procedure: HEK293 cells were seeded in 96-well plates (2×10^4 cells/well) and transfected with a luciferase expression plasmid (0.1 μg/well) using FuGENE HD (Promega). […] Refolding assay was performed as described in Walther, T. V.; Maddalo, D. Intracellular Refolding Assay. J Vis Exp 2012, No. 59. https://doi.org/10.3791/3540. Briefly speaking, luciferase was denatured in live cells by incubation at 45° C. for 30 minutes in the presence of 200 mM MOPS and 20 μg/mL cycloheximide. After the denaturation step, the cells were incubated at 37° C. for various times to allow the luciferase to refold. After cells were lysed with Reporter Lysis 5× Buffer (Promega), luciferase activity was measured.

SMILES	Increase in CHOP mRNA levels [1]	Cell viability under ER stress ([2]; 100 μM pre-incubation 12 h, then thapsigargin 10 μM or tunicamycin 5.0 μg/mL 48 h)	pEC50 [2]	Concentration at which activity was shown [2] [µM]	Effect on BiP mRNA levels [3]	Cytotoxicity ([4]; up to 100 μM)	Refolding of luciferase [5]	Efficacy 5 μM (ER stress inhibition activity) ([2]; compound 5 μM 12 to 18 h, then tunicamycin 5 μg/mL 48 h)	Efficacy 25 μM (ER stress inhibition activity) ([2]; compound 25 μM 12 to 18 h, then tunicamycin 5 μg/mL 48 h)	Efficacy 100 μM (ER stress inhibition activity) ([2]; compound 100 μM 12 to 18 h, then tunicamycin 5 μg/mL 48 h)	Cytotoxicity ([4]; at 25 μM)	Cytotoxicity ([4]; at 100 μM)
NS(=O)(=O)c1ccc(Nc2ccn3c(n2)nc(=O)c2sc4cc(F)ccc4c23)cc1 [compound 1]	completely suppressed	enhanced cell viability under ER stress conditions	4.42	100	limited effect	no obvious cytotoxicity	slightly inhibited refolding					
COc1ccc2c(c1)sc1c(=O)nc3nc(Nc4ccc(S(N)(=O)=O)cc4)ccn3c12 [compound 6]	completely suppressed		4.86	25	limited effect		slightly inhibited refolding	−	++	++	no obvious cytotoxicity	slightly reduced cell viability

— patent US20260070921A1, “COMPOUND, ENDOPLASMIC RETICULUM STRESS INHIBITOR, PHARMACEUTICAL PRODUCT, OPHTHALMIC AGENT, EYE DROPS, COMPOSITION, AND METHOD FOR PRODUCING COMPOUND” (KYOTO UNIVERSITY, priority 2022, published 2026)
